{"source": "patent EP0075823A2", "about": "“Use of basically substituted phenylacetonitriles in the prophylactic treatment of illnesses” (KNOLL AG, priority 1981, dated 1983)", "test_system": "diabetischer Ratten", "assay": "Alloxan-induced diabetes mellitus in rats: prevention of lens and arterial wall calcinosis", "type": "in vivo, Wistar-Ratten", "conditions": "for durch Calcinose von Gefäßwänden verursachte Arterienveränderungen verhindern: attempts with other calcium antagonists, no dose or model details printed", "description": "Gemäß der Erfindung wird es zum ersten Mal möglich, die Krankheiten vorbeugend bei Warmblütern mit Erfolg medikamentös zu behandeln, wie folgende Versuche zeigen: • Wistar-Ratten im Alter von 2 Monaten erhielten zur Erzeugung eines Diabetes mellitus intravenös 80 mg/kg Alloxan. Nach Zerstörung der Insulin-produzierenden ß-Zellen im Pancreas stieg der Blutzuckerwert bei den Tieren von 100 mg% auf etwa 420 mg%. Dieser Wert blieb während einer Beobachtungszeit von 6 1/2 Monaten praktisch konstant. Während der Beobachtungszeit erhielt ein Teil der Tiere täglich 25 mg/kg Verapamilhydrochlorid mit einer Schlucksonde. Bei den nicht mit Verapamil behandelten Tieren kam es in dieser Zeit bei 63 % der Tiere zu einem völligen Verlust der Transparenz der Augenlinse, während sich bei den behandelten Tieren nur in 4 % der Fälle ein Katarakt bildete.\nOhne Verapamil stieg der Calcium-Gehalt der Linse diabetischer Ratten vom Normalwert nicht-diabetischer Kontrolltiere (= 1,08 (i 0,02)) auf 10,89 (± 0,85) mmol/kg Trockengewicht an. Dagegen verblieb mit Verapamil der mittlere Calcium-Gehalt der Linsen diabetischer Tiere in dem niedrigeren Bereich von 3,46 (± 0,61) mmol/kg Trockengewicht.\n-Mit der Verhinderung des Calcium-Anstiegs in den Arterien--Wänden wurden auch die elektronen-optisch - hauptsächlich in der Media - nachweisbaren degenerativen Prozesse verhütet.", "data": [{"smiles": "COc1ccc(CCN(C)CCCC(C#N)(c2cc(OC)c(OC)c(OC)c2)C(C)C)cc1OC", "note": "(stereo not drawn) [Gallopamil, α-ISOpropyl-α-[(N-methyl-N-homoveratryl)--α-aminopropyl]-3,4,5-trimethoxyphenylacetonitril]", "values": [{"measurement": "Verhütung der diabetischen Linsen-Calcinose und des Calcium-Anstiegs in den Arterien-Wänden", "setting": "general statement that corresponding results can be obtained, no data or dose printed", "value": "Entsprechende Ergebnisse"}]}, {"smiles": "COC(=O)C1=C(C)NC(C)=C(C(=O)OC)C1c1ccccc1[N+](=O)[O-]", "note": "[Nifedipin]", "values": [{"measurement": "durch Calcinose von Gefäßwänden verursachte Arterienveränderungen verhindern", "value": "erfolglos"}]}, {"smiles": "CCCOCCOC(=O)C1=C(C)NC(C)=C(C(=O)OCCOCCC)C1c1cccc([N+](=O)[O-])c1", "note": "[Niludipin]", "values": [{"measurement": "durch Calcinose von Gefäßwänden verursachte Arterienveränderungen verhindern", "value": "erfolglos"}]}, {"smiles": "COc1ccc(CCN(C)CCCC(C#N)(c2ccc(OC)c(OC)c2)C(C)C)cc1OC", "note": "(stereo not drawn) [Verapamil, α-Isopropyl-α-[(N-methyl-N-homoveratryl)--α-aminopropyl]-3,4-dimethoxyphenylacetonitril]", "values": [{"measurement": "Katarakt (völliger Verlust der Transparenz der Augenlinse), Anteil der Tiere", "setting": "alloxan-diabetic Wistar rats (80 mg/kg Alloxan i.v.), 25 mg/kg daily by gavage, observation 6 1/2 months, untreated diabetic animals 63 %", "value": 4, "unit": "%"}, {"measurement": "mittlerer Calcium-Gehalt der Linsen diabetischer Tiere", "setting": "alloxan-diabetic rats, 25 mg/kg daily p.o., 6 1/2 months, untreated diabetic 10,89 (± 0,85), non-diabetic controls 1,08", "value": "3,46 (± 0,61) mmol/kg Trockengewicht"}, {"measurement": "elektronen-optisch - hauptsächlich in der Media - nachweisbare degenerative Prozesse", "setting": "arterial walls of the same treated diabetic rats, electron microscopy", "value": "verhütet"}, {"measurement": "abnormer Anstieg der Calcium-Werte in der Wand der Aorta und der Arteria mesenterica superior (Darmarterie)", "setting": "same alloxan-diabetic rats, 25 mg/kg daily p.o., 6 1/2 months", "value": "verhindert"}]}]}
